{"source": "patent US6420338B1", "about": "“Inhibition of the Src kinase family pathway as a method of treating HBV infection and hepatocellular carcinoma” (New York University Medical Center, priority 1997, dated 2002)", "tested_on": "c-Src", "test": "c-Src immunoprecipitation in vitro kinase assay (auto-phosphorylation and enolase trans-phosphorylation)", "type": "cell-based", "settings": "serum-starved NIH 3T3 cells; PDGF 100 ng/ml for 5 min", "description": "FIGS. 1A-1C Serum-starved NIH 3T3 cells were infected with AdCMV-X or -Xo viruses, c-Src or c-Fyn was immunoprecipitated, the pellet washed and assayed by incubation with the substrate enolase and [γ-^32P] ATP. Products were resolved by SDS-10%-PAGE then visualized and quantitiated by PhosphorImage analysis. c-Src (FIG. 1A) or c-Fyn (FIG. 1B) were immunoprecipitated 8 h p.i. from NIH 3T3 cell lysates expressing HBx or HBxo. Where indicated, cells were incubated with PDGF (100 ng/ml) for 5 min. (FIG. 1C) Transfected HBx activates c-Src in the cytoplasm. Chang cells were transfected with 10 μg pCMV-Xo (HBxo), PCMV-X (wt HBx) or pCMV-XNLS (nuclear HBx) expression plasmids, serum-starved for 24 h, c-Src immunoprecipitated and subjected to an in vitro trans-phosphorylation assay, then analyzed as above. […]\nSrc kinase assays were carried out essentially as described (Kypta et al., 1990, Cell 62:481-492). […] Src and Fyn kinase activity were measured by immunoprecipitating either Src (1 μg anti-Src antibodies) or Fyn (1 μg/ml anti-Fyn antibodies) from equal amounts of cell lysate. […] For the reactions containing the Src peptide substrate, TCA was added to a final concentration of 20%, an aliquot was spotted onto phosphocellulose paper (UBI), the filters were washed 3×5 minutes in 0.75% phosphoric acid and once in acetone, dried and analyzed by scintillation counting. […]", "data": [{"substance": "PDGF", "values": [{"measurement": "activation of c-Src (auto- and trans-phosphorylation)", "value": "3-4 fold"}]}]}
